Laboratory results published in patent publication US6358885B1, “Substituted phenylheterocyclic herbicides” (Mississippi State University, priority 1992, dated 2002).

Columns and labels:
Assay in all cases: Test G preemergence/postemergence greenhouse plant response rating 0 to 100
[1] = system: broadleaf signalgrass; format: in vivo, Brachiaria plantaginea; details: 0 to 100 scale
Summary of the method: (§1)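 Greenhouse pots, one species each; non-phytotoxic solvent vehicle. Read-out: visual injury vs untreated, 13–21 DAT. Dash denotes no result.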

[2] = system: large crabgrass; format: in vivo, Digitaria sanguinalis; details: 0 to 100 scale
Summary of the method: as §1

[3] = system: itchgrass; format: in vivo, Rottboellia exaltata; details: 0 to 100 scale
Summary of the method: as §1

[4] = system: sandbur; format: in vivo, Cenchrus echinatus; details: 0 to 100 scale
Summary of the method: as §1

[5] = system: alfalfa; format: in vivo, Medicago ativa; details: 0 to 100 scale
Summary of the method: as §1

[6] = system: guineagrass; format: in vivo, Panicum maximum; details: 0 to 100 scale
Summary of the method: as §1

[7] = system: common ragweed; format: in vivo, Ambrosia elatior; details: 0 to 100 scale
Summary of the method: as §1

[8] = system: peanut; format: in vivo, Arachis hypoagaea; details: 0 to 100 scale
Summary of the method: as §1

[9] = system: pitted morningglory; format: in vivo, Ipomoea lacunosa; details: 0 to 100 scale
Summary of the method: as §1

[10] = system: yellow nutsedge; format: in vivo, Cyperus esculentus; details: Rate 125 g/ha, 0 to 100 scale
Summary of the method: as §1

[11] = system: common purslane; format: in vivo, Portulaca oleracea; details: 0 to 100 scale
Summary of the method: as §1

[12] = system: goosegrass; format: in vivo, Eleusine indica; details: 0 to 100 scale
Summary of the method: as §1

[13] = system: johnsongrass; format: in vivo, Sorghum halepense; details: 0 to 100 scale
Summary of the method: as §1

[14] = system: annual bluegrass; format: in vivo, Poa annua; details: 0 to 100 scale
Summary of the method: as §1

[15] = system: dallisgrass; format: in vivo, Paspalum dilatatum; details: 0 to 100 scale
Summary of the method: as §1

[16] = system: purple nutsedge; format: in vivo, Cyperus rotundus; details: Rate 125 g/ha, 0 to 100 scale
Summary of the method: as §1

[17] = system: bermudagrass; format: in vivo, Cynodon dactylon; details: 0 to 100 scale
Summary of the method: as §1

SMILES: C#CCN1C(=O)COc2cc(F)c(-c3nn4c(c3Cl)CCCC4)cc21 [Compound 34]
- Plant response rating, Brdlf Sgnlgrass ([1]; POSTEMERGENCE, Rate 125 g/ha): 0
- Plant response rating, Brdlf Sgnlgrass ([1]; POSTEMERGENCE, Rate 250 g/ha): 0
- Plant response rating, Brdlf Sgnlgrass ([1]; PREEMERGENCE, Rate 125 g/ha): 0
- Plant response rating, Brdlf Sgnlgrass ([1]; PREEMERGENCE, Rate 250 g/ha): 0
- Plant response rating, Large Crabgrass ([2]; POSTEMERGENCE, Rate 125 g/ha): 0
- Plant response rating, Large Crabgrass ([2]; POSTEMERGENCE, Rate 250 g/ha): 0
- Plant response rating, Large Crabgrass ([2]; PREEMERGENCE, Rate 125 g/ha): 0
- Plant response rating, Large Crabgrass ([2]; PREEMERGENCE, Rate 250 g/ha): 60
- Plant response rating, Itchgrass ([3]; POSTEMERGENCE, Rate 125 g/ha): 0
- Plant response rating, Itchgrass ([3]; POSTEMERGENCE, Rate 250 g/ha): 0
- Plant response rating, Itchgrass ([3]; PREEMERGENCE, Rate 125 g/ha): 0
- Plant response rating, Itchgrass ([3]; PREEMERGENCE, Rate 250 g/ha): 20
- Plant response rating, S. Sandbur ([4]; POSTEMERGENCE, Rate 125 g/ha): 0
- Plant response rating, S. Sandbur ([4]; POSTEMERGENCE, Rate 250 g/ha): 0
- Plant response rating, S. Sandbur ([4]; PREEMERGENCE, Rate 125 g/ha): 0
- Plant response rating, S. Sandbur ([4]; PREEMERGENCE, Rate 250 g/ha): 0
- Plant response rating, Alfalfa Var. ([5]; POSTEMERGENCE, Rate 125 g/ha): 40
- Plant response rating, Alfalfa Var. ([5]; POSTEMERGENCE, Rate 250 g/ha): 60
- Plant response rating, Alfalfa Var. ([5]; PREEMERGENCE, Rate 125 g/ha): 0
- Plant response rating, Alfalfa Var. ([5]; PREEMERGENCE, Rate 250 g/ha): 100
- Plant response rating, Guineagrass ([6]; POSTEMERGENCE, Rate 125 g/ha): 0
- Plant response rating, Guineagrass ([6]; POSTEMERGENCE, Rate 250 g/ha): 0
- Plant response rating, Guineagrass ([6]; PREEMERGENCE, Rate 125 g/ha): 0
- Plant response rating, Guineagrass ([6]; PREEMERGENCE, Rate 250 g/ha): 0
- Plant response rating, Cmn Ragweed ([7]; POSTEMERGENCE, Rate 125 g/ha): 70
- Plant response rating, Cmn Ragweed ([7]; POSTEMERGENCE, Rate 250 g/ha): 100
- Plant response rating, Cmn Ragweed ([7]; PREEMERGENCE, Rate 125 g/ha): 0
- Plant response rating, Cmn Ragweed ([7]; PREEMERGENCE, Rate 250 g/ha): 0
- Plant response rating, Peanuts ([8]; POSTEMERGENCE, Rate 125 g/ha): 30
- Plant response rating, Peanuts ([8]; POSTEMERGENCE, Rate 250 g/ha): 0
- Plant response rating, Peanuts ([8]; PREEMERGENCE, Rate 125 g/ha): 0
- Plant response rating, Peanuts ([8]; PREEMERGENCE, Rate 250 g/ha): 0
- Plant response rating, Pit Morninglory ([9]; POSTEMERGENCE, Rate 125 g/ha): 30
- Plant response rating, Pit Morninglory ([9]; POSTEMERGENCE, Rate 250 g/ha): 50
- Plant response rating, Pit Morninglory ([9]; PREEMERGENCE, Rate 125 g/ha): 0
- Plant response rating, Pit Morninglory ([9]; PREEMERGENCE, Rate 250 g/ha): 30
- Plant response rating, Yellow Nutsedge ([10]; POSTEMERGENCE): 0
- Plant response rating, Yellow Nutsedge ([10]; PREEMERGENCE): 0
- Plant response rating, Cmn Purslane ([11]; POSTEMERGENCE, Rate 125 g/ha): 100
- Plant response rating, Cmn Purslane ([11]; POSTEMERGENCE, Rate 250 g/ha): 100
- Plant response rating, Cmn Purslane ([11]; PREEMERGENCE, Rate 125 g/ha): 0
- Plant response rating, Cmn Purslane ([11]; PREEMERGENCE, Rate 250 g/ha): 100
- Plant response rating, Goosegrass ([12]; POSTEMERGENCE, Rate 125 g/ha): 0
- Plant response rating, Goosegrass ([12]; POSTEMERGENCE, Rate 250 g/ha): 0
- Plant response rating, Goosegrass ([12]; PREEMERGENCE, Rate 125 g/ha): 0
- Plant response rating, Goosegrass ([12]; PREEMERGENCE, Rate 250 g/ha): 30
- Plant response rating, Johnsongrass ([13]; POSTEMERGENCE, Rate 125 g/ha): 0
- Plant response rating, Johnsongrass ([13]; POSTEMERGENCE, Rate 250 g/ha): 0
- Plant response rating, Johnsongrass ([13]; PREEMERGENCE, Rate 125 g/ha): 0
- Plant response rating, Johnsongrass ([13]; PREEMERGENCE, Rate 250 g/ha): 0
- Plant response rating, Ann Bluegrass ([14]; POSTEMERGENCE, Rate 125 g/ha): 0
- Plant response rating, Ann Bluegrass ([14]; POSTEMERGENCE, Rate 250 g/ha): 0
- Plant response rating, Ann Bluegrass ([14]; PREEMERGENCE, Rate 125 g/ha): 0
- Plant response rating, Ann Bluegrass ([14]; PREEMERGENCE, Rate 250 g/ha): 50
- Plant response rating, Dallisgrass ([15]; POSTEMERGENCE, Rate 125 g/ha): 0
- Plant response rating, Dallisgrass ([15]; POSTEMERGENCE, Rate 250 g/ha): 0
- Plant response rating, Dallisgrass ([15]; PREEMERGENCE, Rate 125 g/ha): 0
- Plant response rating, Dallisgrass ([15]; PREEMERGENCE, Rate 250 g/ha): 80
- Plant response rating, Purple Nutsedge ([16]; POSTEMERGENCE): 20
- Plant response rating, Purple Nutsedge ([16]; PREEMERGENCE): 0
- Plant response rating, Bermudagrass ([17]; POSTEMERGENCE, Rate 125 g/ha): 0
- Plant response rating, Bermudagrass ([17]; POSTEMERGENCE, Rate 250 g/ha): 0
- Plant response rating, Bermudagrass ([17]; PREEMERGENCE, Rate 125 g/ha): 0
- Plant response rating, Bermudagrass ([17]; PREEMERGENCE, Rate 250 g/ha): 0
